# Measured values as given in article PMC9603010 (ACS Bio & Med Chem Au, 2022).
# Structures can show the parent of a compound that is named as a salt.
# System: HEK293T cells
# Conditions: 48 h, multiple concentrations
row,Compound,impact on cell viability
1,"NC(CO)C(=O)NNCc1ccc(O)c(O)c1O (stereo not drawn) [benserazide, reference compound]",without significant impact on cell viability
2,O=C(O[C@@H]1Cc2c(O)cc(O)cc2O[C@@H]1c1cc(O)c(O)c(O)c1)c1cc(O)c(O)c(O)c1 [epigallocatechin gallate],without significant impact on cell viability
3,"c1ccc2c(c1)OCC(C1=NCCN1)O2 (stereo not drawn) [idazoxan, reference compound]",without significant impact on cell viability
4,COc1c(-c2coc3cc4c(cc3c2=O)CC(O)C(C)(C)O4)ccc2c1C=CC(C)(C)O2 (stereo not drawn) [mundulone],without significant impact on cell viability
5,C=C1C(=O)O[C@H]2[C@H]1CC/C(C)=C/CC[C@@]1(C)O[C@@H]21 [parthenolide],without significant impact on cell viability

# System: SARS-CoV-2 (USA-WA1/2020)
# Type: cell-based
# Conditions: not given
row,Compound,reduction of the number of infected cells compared to vehicle
1,"c1ccc2c(c1)OCC(C1=NCCN1)O2 (stereo not drawn) [idazoxan hydrochloride, reference compound]",more than 90%
